ChEMBL document CHEMBL1201862, “PubChem BioAssay data set” (2004)
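Test compounds were applied to cells in 96-well plates for 48 hours at 5 doses. Abbreviation: GI50, concentration required for 50% inhibition of growth.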 Active and inactive are the calls of the source. Rule as the data show it: active = GI50 up to about 1.1 µM and inactive = higher.

What was measured:
Test in all cases: NCI anticancer screen, dose series, 48 h
A498 = tested on: A498
A549 = tested on: A549
CAKI-1 = tested on: CAKI-1
CCRF-CEM = tested on: CCRF-CEM
EKVX = tested on: EKVX
HCC 2998 = tested on: HCC 2998
HCT-15 = tested on: HCT-15
HT-29 = tested on: HT-29
MOLT-4 = tested on: MOLT-4
Malme-3M = tested on: Malme-3M
NCI-H226 = tested on: NCI-H226
NCI-H23 = tested on: NCI-H23
NCI-H460 = tested on: NCI-H460
RXF 393 = tested on: RXF 393
SK-MEL-2 = tested on: SK-MEL-2
SK-MEL-5 = tested on: SK-MEL-5
SNB-19 = tested on: SNB-19
SR = tested on: SR
PC-3 = tested on: PC-3

## CO/C(=N\N=C\c1ccc(Cl)cc1)c1ccncc1
A498
  GI50: > 100 µM (inactive)
A549
  GI50: > 100 µM (inactive)
CAKI-1
  GI50: > 100 µM (inactive)
CCRF-CEM
  GI50: > 100 µM (inactive)
EKVX
  GI50: > 100 µM (inactive)
HCC 2998
  GI50: > 100 µM (inactive)
HCT-15
  GI50: > 100 µM
HT-29
  GI50: > 100 µM (inactive)
MOLT-4
  GI50: > 100 µM (inactive)
Malme-3M
  GI50: > 100 µM (inactive)
NCI-H226
  GI50: 59.7 µM (inactive)
NCI-H23
  GI50: > 100 µM (inactive)
NCI-H460
  GI50: > 100 µM (inactive)
RXF 393
  GI50: > 100 µM (inactive)
SK-MEL-2
  GI50: > 100 µM (inactive)
SK-MEL-5
  GI50: > 100 µM (inactive)
SNB-19
  GI50: > 100 µM (inactive)
SR
  GI50: > 100 µM (inactive)

## O=C1CC(C(COCc2ccccc2)OCc2ccccc2)CC(=O)N1 (stereo unspecified)
A549
  GI50: > 100 µM (inactive)
CAKI-1
  GI50: > 100 µM (inactive)
CCRF-CEM
  GI50: > 100 µM (inactive)
EKVX
  GI50: > 100 µM (inactive)
HCC 2998
  GI50: > 100 µM (inactive)
HCT-15
  GI50: > 100 µM
HT-29
  GI50: > 100 µM (inactive)
MOLT-4
  GI50: > 100 µM (inactive)
Malme-3M
  GI50: > 100 µM (inactive)
NCI-H226
  GI50: > 100 µM (inactive)
NCI-H23
  GI50: > 100 µM (inactive)
PC-3
  GI50: 83.2 µM (inactive)
SK-MEL-5
  GI50: > 100 µM (inactive)
SNB-19
  GI50: > 100 µM (inactive)
SR
  GI50: > 100 µM (inactive)

## Cc1ccc(N2C(=O)N(c3ccc(C)cc3)C3(SC=NN3C)C2=O)cc1 (stereo unspecified)
A498
  GI50: 73.1 µM (inactive)
A549
  GI50: 50.5 µM (inactive)
CAKI-1
  GI50: 83.2 µM (inactive)
CCRF-CEM
  GI50: 40.6 µM (inactive)
EKVX
  GI50: > 100 µM (inactive)
HCC 2998
  GI50: 98.9 µM (inactive)
HT-29
  GI50: 32.4 µM (inactive)
MOLT-4
  GI50: 63.2 µM (inactive)
Malme-3M
  GI50: 95.5 µM (inactive)
NCI-H226
  GI50: 72.8 µM (inactive)
NCI-H23
  GI50: 35.2 µM (inactive)
NCI-H460
  GI50: > 100 µM (inactive)
RXF 393
  GI50: 59.6 µM (inactive)
SK-MEL-5
  GI50: 30 µM (inactive)
SNB-19
  GI50: > 100 µM (inactive)
SR
  GI50: 58.3 µM (inactive)

## CC1CCN(c2cc(-c3cc4ccccc4o3)oc(=O)c2C#N)CC1
A498
  GI50: > 100 µM (inactive)
A549
  GI50: > 100 µM (inactive)
CAKI-1
  GI50: 19.9 µM (inactive)
CCRF-CEM
  GI50: > 100 µM (inactive)
EKVX
  GI50: > 100 µM (inactive)
HCC 2998
  GI50: > 100 µM (inactive)
HCT-15
  GI50: > 100 µM
HT-29
  GI50: > 100 µM (inactive)
MOLT-4
  GI50: > 100 µM (inactive)
Malme-3M
  GI50: > 100 µM (inactive)
NCI-H226
  GI50: > 100 µM (inactive)
NCI-H23
  GI50: > 100 µM (inactive)
NCI-H460
  GI50: > 100 µM (inactive)
RXF 393
  GI50: 45.7 µM (inactive)
SK-MEL-2
  GI50: > 100 µM (inactive)
SK-MEL-5
  GI50: > 100 µM (inactive)
SNB-19
  GI50: > 100 µM (inactive)
SR
  GI50: > 100 µM (inactive)

## Cc1ccc2c(c1-c1ccccc1)C(=O)OC2
A498
  GI50: > 100 µM (inactive)
A549
  GI50: > 100 µM (inactive)
CAKI-1
  GI50: > 100 µM (inactive)
CCRF-CEM
  GI50: > 100 µM (inactive)
EKVX
  GI50: 17.1 µM (inactive)
HCC 2998
  GI50: > 100 µM (inactive)
HCT-15
  GI50: > 100 µM
HT-29
  GI50: > 100 µM (inactive)
MOLT-4
  GI50: 94.4 µM (inactive)
Malme-3M
  GI50: > 100 µM (inactive)
NCI-H226
  GI50: > 100 µM (inactive)
NCI-H23
  GI50: > 100 µM (inactive)
RXF 393
  GI50: > 100 µM (inactive)
SK-MEL-2
  GI50: > 100 µM (inactive)
SK-MEL-5
  GI50: > 100 µM (inactive)
SNB-19
  GI50: > 100 µM (inactive)
SR
  GI50: 90.6 µM (inactive)

## CC/C=C\C/C=C\C/C=C\CCCCCCCC(=O)OCC
A498
  GI50: > 100 µM (inactive)
A549
  GI50: > 100 µM (inactive)
CAKI-1
  GI50: > 100 µM (inactive)
CCRF-CEM
  GI50: > 100 µM (inactive)
EKVX
  GI50: > 100 µM (inactive)
HCC 2998
  GI50: > 100 µM (inactive)
HT-29
  GI50: > 100 µM (inactive)
MOLT-4
  GI50: 87.1 µM (inactive)
Malme-3M
  GI50: > 100 µM (inactive)
NCI-H226
  GI50: > 100 µM (inactive)
NCI-H23
  GI50: > 100 µM (inactive)
SK-MEL-2
  GI50: > 100 µM (inactive)
SK-MEL-5
  GI50: > 100 µM (inactive)
SR
  GI50: > 100 µM (inactive)

## CCc1cccc(CC)c1NC1=CC(=O)C(=O)c2ccccc21
A498
  GI50: 22.3 µM (inactive)
A549
  GI50: 18.6 µM (inactive)
CAKI-1
  GI50: 18.9 µM (inactive)
CCRF-CEM
  GI50: > 100 µM (inactive)
EKVX
  GI50: 14.1 µM (inactive)
HCC 2998
  GI50: 15 µM (inactive)
HCT-15
  GI50: 10.3 µM
HT-29
  GI50: 2.06 µM (inactive)
MOLT-4
  GI50: 45.7 µM (inactive)
Malme-3M
  GI50: 17.9 µM (inactive)
NCI-H226
  GI50: 23 µM (inactive)
NCI-H23
  GI50: 1.49 µM (inactive)
NCI-H460
  GI50: 19 µM (inactive)
RXF 393
  GI50: 23.9 µM (inactive)
SK-MEL-2
  GI50: 14.6 µM (inactive)
SK-MEL-5
  GI50: 10 µM (inactive)
SNB-19
  GI50: 23 µM (inactive)
SR
  GI50: 29.9 µM (inactive)

## C#CCOCn1cnc2ncnc(Cl)c21
A498
  GI50: > 100 µM (inactive)
A549
  GI50: > 100 µM (inactive)
CAKI-1
  GI50: > 100 µM (inactive)
CCRF-CEM
  GI50: > 100 µM (inactive)
EKVX
  GI50: > 100 µM (inactive)
HCC 2998
  GI50: > 100 µM (inactive)
HT-29
  GI50: > 100 µM (inactive)
MOLT-4
  GI50: > 100 µM (inactive)
Malme-3M
  GI50: > 100 µM (inactive)
NCI-H226
  GI50: > 100 µM (inactive)
NCI-H23
  GI50: > 100 µM (inactive)
NCI-H460
  GI50: > 100 µM (inactive)
SK-MEL-2
  GI50: > 100 µM (inactive)
SK-MEL-5
  GI50: > 100 µM (inactive)
SNB-19
  GI50: > 100 µM (inactive)
SR
  GI50: > 100 µM (inactive)

## C/C(=N\NC(=S)Nc1ccc(C(=O)O)cc1)c1ccccn1
A498
  GI50: 25 µM (inactive)
A549
  GI50: 39.1 µM (inactive)
CAKI-1
  GI50: 29.5 µM (inactive)
CCRF-CEM
  GI50: 17.4 µM (inactive)
EKVX
  GI50: 27.9 µM (inactive)
HCC 2998
  GI50: 15 µM (inactive)
HCT-15
  GI50: 26.5 µM
HT-29
  GI50: 34.7 µM (inactive)
MOLT-4
  GI50: 33.3 µM (inactive)
Malme-3M
  GI50: 15.5 µM (inactive)
NCI-H226
  GI50: 18.2 µM (inactive)
NCI-H23
  GI50: 36.9 µM (inactive)
NCI-H460
  GI50: 21.6 µM (inactive)
RXF 393
  GI50: 35 µM (inactive)
SK-MEL-2
  GI50: 17.6 µM (inactive)
SK-MEL-5
  GI50: 16.9 µM (inactive)
SR
  GI50: 12.2 µM (inactive)

## c1ccc(N2CCN(CCCN3CCc4c([nH]c5ccccc45)C3c3cccnc3)CC2)cc1 (stereo unspecified)
A498
  GI50: > 100 µM (inactive)
A549
  GI50: > 100 µM (inactive)
CAKI-1
  GI50: > 100 µM (inactive)
CCRF-CEM
  GI50: 88.3 µM (inactive)
EKVX
  GI50: > 100 µM (inactive)
HCC 2998
  GI50: 40.4 µM (inactive)
HCT-15
  GI50: 56 µM
HT-29
  GI50: 22.9 µM (inactive)
MOLT-4
  GI50: 30.4 µM (inactive)
Malme-3M
  GI50: > 46.9 µM (inactive)
NCI-H226
  GI50: > 100 µM (inactive)
NCI-H23
  GI50: > 100 µM (inactive)
NCI-H460
  GI50: 48.3 µM (inactive)
RXF 393
  GI50: > 100 µM (inactive)
SK-MEL-2
  GI50: > 100 µM (inactive)
SK-MEL-5
  GI50: > 70.3 µM (inactive)
SNB-19
  GI50: > 100 µM (inactive)
SR
  GI50: 27 µM (inactive)

## CCOC(=O)C(C(=O)OCC)c1ccc([N+](=O)[O-])o1
A498
  GI50: > 10 µM (inactive)
A549
  GI50: 21.5 µM (inactive)
CAKI-1
  GI50: 6.18 µM (inactive)
CCRF-CEM
  GI50: 2.53 µM (inactive)
EKVX
  GI50: 18.7 µM (inactive)
HCC 2998
  GI50: 17.3 µM (inactive)
HCT-15
  GI50: 17.3 µM
HT-29
  GI50: 14 µM (inactive)
MOLT-4
  GI50: 3.08 µM (inactive)
Malme-3M
  GI50: 6.73 µM (inactive)
NCI-H226
  GI50: 21.9 µM (inactive)
NCI-H23
  GI50: 17.6 µM (inactive)
NCI-H460
  GI50: 20.3 µM (inactive)
RXF 393
  GI50: 12.4 µM (inactive)
SK-MEL-2
  GI50: 18.6 µM (inactive)
SK-MEL-5
  GI50: 17.3 µM (inactive)
SNB-19
  GI50: > 100 µM (inactive)
SR
  GI50: 6.93 µM (inactive)

## COc1ccc(NC(=O)C(=O)Cc2ccc([N+](=O)[O-])c([N+](=O)[O-])c2CC(=O)C(=O)Nc2ccc(OC)cc2OC)c(OC)c1
A498
  GI50: > 100 µM (inactive)
A549
  GI50: > 100 µM (inactive)
CAKI-1
  GI50: > 100 µM (inactive)
CCRF-CEM
  GI50: > 100 µM (inactive)
EKVX
  GI50: > 100 µM (inactive)
HCC 2998
  GI50: > 100 µM (inactive)
HCT-15
  GI50: > 100 µM
HT-29
  GI50: > 100 µM (inactive)
MOLT-4
  GI50: > 100 µM (inactive)
Malme-3M
  GI50: > 100 µM (inactive)
NCI-H226
  GI50: > 100 µM (inactive)
NCI-H23
  GI50: > 100 µM (inactive)
NCI-H460
  GI50: > 100 µM (inactive)
RXF 393
  GI50: > 100 µM (inactive)
SNB-19
  GI50: > 100 µM (inactive)
SR
  GI50: > 100 µM (inactive)
